Experimental data as given in patent publication US4927959A, “Alprenolol derivatives” (Snow Brand Milk Products Co., Ltd., priority 1987, dated 1990).
Where a name gives a salt, the structure may show the parent alone.

Key:
[1] = conversion test to the parent drug (alprenolol) in buffer solution having the pH of 7.4; assay type: physicochemical; settings: hydrochloride, Britton-Robinson buffer pH 7.4, 37° C.; for half-life: read-out: Half-life time (T 1/2) (converted); for 50% producing time of the parent drug (T' 1/2): unit assumed
Protocol: Assuming the absorption and distribution of the derivatives in vivo, conversion tests to the parent drug (alprenolol) were carried out by the following method in buffer solutions having the pH of 2, 4 and 7.4.
Britton-Robinson buffer solutions having the pH of 2, 4 and 7.4 were prepared. To each 800 μl of the buffer solution, 200 μl of an aqueous solution of each compound which had been adjusted to a concentration of 2 mg/ml were added. The resulting mixture was incubated at 37° C.
From each reaction mixture, 100 μl of sample were collected after 0, 1, 3, 5, 7 and 24 hours, diluted with a developer and subjected to high performance liquid chromatography (abbreviated as HPLC) under following conditions.
(d) Conditions of HPLC in the conversion test;
(d) Conditions of HPLC in the above conversion test;
As to the compounds (hydrochloride) described in the above (1)-(4), the conversion rate to the parent drug was examined in a buffer solution having the pH of 7.4 assuming blood pH. Table 1 illustrates half-life time (T 1/2) of each compound in the above buffer solution and 50% producing time (T' 1/2) of the parent drug in the same buffer solution.

[2] = oral administration to dogs, plasma levels of the parent drug and AUC (improving effect on bioavailability); assay type: in vivo, Female beagle dogs; settings: beagle dogs; for relationship between dose and AUC (area under the plasma concentration curve) (FIG. 14): alprenolol hydrochloride 2-30 mg/kg, hydrochlorides of (1) and (2) equivalent to 10 and 20 mg/kg; for plasma concentration of the parent drug (FIG. 13): hydrochlorides, dose equivalent to 20 mg/kg of alprenolol hydrochloride, 0.5-6 hours, versus alprenolol hydrochloride
Protocol: In the next step, the alprenolol drivative of this invention was orally administered to dogs as experimental animals. The results described below were obtained by investigating the improving effect on bioavailability. Female beagle dogs (a body weight of about 10 kg) were used as the experimental animals. The 12 dogs were divided into 2 groups of 6 dogs and each group was alternately subjected to the experiment with intervals of 2 weeks. To the dogs, 2, 5, 10, 20 and 30 mg/kg of alprenolol hydrochloride 13.50 and 27.00 mg/kg of the compound (1) hydrochloride, (equivalent to 10, 20 mg/kg of the alprenolol hydrochloride, respectively) and 13.99 and 27.98 mg/kg of the compound (2) hydrochloride (equivalent to 10 and 20 mg/kg of alprenolol hydrochloride, respectively) were orally administered. Blood was collected respectively after 0.5, 1, 2, 4 and 6 hours. The plasma separated from the blood was extracted with ethanol. Plasma levels of the parent drug were determined by HPLC. The conditions for the HPLC analysis are shown as follows: |Column ODS 4.6.phi. × 250 mm |Flow rate 0.8 ml/min |Eluent CH3 CN:CH3 OH:50 mM KH2 PO4

[3] = cited from earlier work

| SMILES | half-life [1] | 50% producing time of the parent drug (T' 1/2) [1] | relationship between dose and AUC (area under the plasma concentration curve) (FIG. 14) [2] | plasma concentration of the parent drug (FIG. 13) [2] | bioavailability of alprenolol in the oral administration [3] |
| --- | --- | --- | --- | --- | --- |
| C=CCc1ccccc1OCC(CNC(C)C)OC(=O)CCC(=O)O (centres unmarked) [(1), Butanedioic acid mono[1-{(2-allylphenoxy)methyl}{2-(1-methylethyl)amino}ethyl]ester] | 7.4 h | 5 h | linear relationships | significantly high plasma concentration of the parent drug | – |
| C=CCc1ccccc1OCC(CNC(C)C)OC(=O)CCCC(=O)O (centres unmarked) [(2), pentanedioic acid mono[1-{(2-allylphenoxy)methyl}-{2-(1-methylethyl)amino}ethyl]ester hydrochloride] | 4.9 h | 5 h | linear relationships | significantly high plasma concentration of the parent drug | – |
| C=CCc1ccccc1OCC(CNC(C)C)OC(=O)CCCC(=O)OCC (centres unmarked) [(3), 4-Ethoxycarbonylbutanoic acid mono[1-{(2-allylphenoxy)methyl}-{2-(1-methylethyl)amino}ethyl]ester] | 1.3 h | 2 h | – | – | – |
| C=CCc1ccccc1OCC(CNC(C)C)OC(=O)/C=C\C(=O)O (centres unmarked) [(4), (z)-Butenedioic acid mono[1-{(2-allylphenoxy)methyl}-{2-(1-methylethyl)amino}ethyl]ester] | 0.9 h | 3 h | – | – | – |
| C=CCc1ccccc1OCC(O)CNC(C)C (centres unmarked) [alprenolol hydrochloride, reference compound] | – | – | non-linear relationship with the threshold due to the first-pass effect | – | – |
| C=CCc1ccccc1OCC(O)CNC(C)C (centres unmarked) [alprenolol] | – | – | – | – | 15% |
